Measurements from patent publication US10544103B2, “5-HT2 antagonists” (ANAMAR AB, priority 2015, dated 2020).

Target: T1, 5-HT2B receptor (Homo sapiens, UniProt P41595)
T1 construct: host or cells: CHO-K1
Assay: 5-HT2B receptor binding, 3H-LSD ligand displacement assay
Conditions: for inhibition at 0.001 µM: 0.001 uM compound; for inhibition at 0.01 µM: 0.01 uM compound; for inhibition at 0.1 µM: 0.1 uM compound; for inhibition at 1 µM: 1 uM compound
Procedure: 5-HT2B receptor binding (performed at Eurofins Panlabs Taiwan, Ltd.) to human receptor protein expressed in CHO-K1 cells was determined in a ligand displacement assay using ^3H-lysergic acid diethylamide (LSD) as radioligand and ketanserine as a standard reference compound. Data is presented as % displacement of radioligand at indicated compound concentrations, see Table 1 and Table 2.

T1 sequence (P41595 whole entry): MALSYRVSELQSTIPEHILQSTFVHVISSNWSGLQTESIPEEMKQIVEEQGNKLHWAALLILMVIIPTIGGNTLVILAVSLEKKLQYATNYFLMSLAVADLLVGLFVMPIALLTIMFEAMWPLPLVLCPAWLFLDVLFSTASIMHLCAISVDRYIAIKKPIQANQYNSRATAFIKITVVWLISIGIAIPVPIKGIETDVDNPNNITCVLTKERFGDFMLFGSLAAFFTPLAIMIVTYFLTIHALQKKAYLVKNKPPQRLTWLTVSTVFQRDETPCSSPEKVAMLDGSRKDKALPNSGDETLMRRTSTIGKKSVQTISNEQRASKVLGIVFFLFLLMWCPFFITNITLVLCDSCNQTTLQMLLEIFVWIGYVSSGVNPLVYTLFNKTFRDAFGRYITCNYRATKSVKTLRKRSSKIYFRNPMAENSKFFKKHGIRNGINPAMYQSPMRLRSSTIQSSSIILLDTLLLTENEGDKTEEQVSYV

| inhibition at 10 µM (10 uM compound) | Structure (SMILES) | inhibition at 0.001 µM | inhibition at 0.01 µM | inhibition at 0.1 µM | inhibition at 1 µM |
| --- | --- | --- | --- | --- | --- |
|  | COc1cc(CNC(=N)N2CC(C)C(c3ccccc3O)=N2)cc(OC)c1 (stereo not drawn) [Example 61, N-(3,5-Dimethoxybenzyl)-3-(2-hydroxyphenyl)-4-methyl-4,5-dihydro-1H-pyrazole-1-carboximidamide] | 13% | 36% |  |  |
|  | CC1CN(C(=N)N)N=C1c1cccc(F)c1O (stereo not drawn) [Example 48, 3-(3-Fluoro-2-hydroxyphenyl)-4-methyl-4,5-dihydro-1H-pyrazole-1-carboximidamide] |  | 54% | 85% | 95% |
|  | COc1cc(F)ccc1C1=NN(C(=N)N)CC1C (stereo not drawn) [Example 49, 3-(4-Fluoro-2-methoxyphenyl)-4-methyl-4,5-dihydro-1H-pyrazole-1-carboximidamide] |  | 11% | 28% | 78% |
|  | N=C(N)N1CCC(c2c(O)cccc2Cl)=N1 [Example 34, 3-(2-Chloro-6-hydroxyphenyl)-4,5-dihydro-1H-pyrazole-1-carboximidamide] |  |  | 23% | 52% |
|  | CC1CN(C(=N)NCc2ccc(Cl)c(Cl)c2)N=C1c1ccccc1O (stereo not drawn) [Example 58, N-(3,4-Dichlorobenzyl)-3-(2-hydroxyphenyl)-4-methyl-4,5-dihydro-1H-pyrazole-1-carboximidamide] | 2% | 52% |  |  |
|  | Cc1c(C2=NN(C(=N)N)C(C)C2)oc2ccccc12 (stereo not drawn) [Example 28, 5-Methyl-3-(3-methylbenzofuran-2-yl)-4,5-dihydro-1H-pyrazole-1-carboximidamide] |  |  | 63% | 95% |
|  | COc1c(Cl)cccc1C1=NN(C(=N)NC#N)CC1C (stereo not drawn) [Example 90, 3-(3-Chloro-2-methoxyphenyl)-N-cyano-4-methyl-4,5-dihydro-1H-pyrazole-1-carboximidamide] | 3% | 1% | -2% |  |
|  | CC1CN(C(=N)NCc2ccccc2)N=C1c1cccc(Cl)c1O (stereo not drawn) [Example 75, N-Benzyl-3-(3-chloro-2-hydroxyphenyl)-4-methyl-4,5-dihydro-1H-pyrazole-1-carboximidamide] | 76% | 97% |  |  |
|  | CCCCNC(=N)N1CC(C)C(c2cccc(Cl)c2OC)=N1 (stereo not drawn) [Example 78, N-butyl-3-(3-chloro-2-methoxyphenyl)-4-methyl-4,5-dihydro-1H-pyrazole-1-carboximidamide] | 49% | 85% | 98% |  |
|  | CC1CN(C(=N)NCC(F)(F)F)N=C1c1ccccc1O (stereo not drawn) [Example 95, 3-(2-Hydroxyphenyl)-4-methyl-N-(2,2,2-trifluoroethyl)-4,5-dihydro-1H-pyrazole-1-carboximidamide] | 12% | 70% | 96% |  |
|  | CCCCCCNC(=N)N1CC(C)C(c2cccc(Cl)c2O)=N1 (stereo not drawn) [Example 81, 3-(3-Chloro-2-hydroxyphenyl)-N-hexyl-4-methyl-4,5-dihydro-1H-pyrazole-1-carboximidamide] | 62% | 96% | 97% |  |
|  | CC1CN(C(=N)N)N=C1c1cc(F)ccc1O (stereo not drawn) [Example 46, 3-(5-Fluoro-2-hydroxyphenyl)-4-methyl-4,5-dihydro-1H-pyrazole-1-carboximidamide] |  | 22% | 54% | 89% |
|  | CC1CN(C(=N)Nc2ccc(Cl)cc2)N=C1c1ccccc1O (stereo not drawn) [Example 103, N-(4-Chlorophenyl)-3-(2-hydroxyphenyl)-4-methyl-4,5-dihydro-1H-pyrazole-1-carboximidamide] | 42% | 90% | 99% |  |
| 42% | COc1ccc(C2=NN(C(=N)N)CC2)cc1OC [Example 16, 3-(3,4-Dimethoxyphenyl)-4,5-dihydro-1H-pyrazole-1-carboximidamide, reference compound] |  |  |  | 6% |
